One assay relates to A375. As to the kind of experiment: Compounds cellular killing in A375. Type of assay: cell-based, human. The conditions noted are these: Homo sapiens, A375, 6 days, Cell Titer-Glo. As for the experimental part: (§1) Seeding cells A375 (1E3/well) or Calu-6 (2E3/well) into 96-well plate (Greiner: 655090), 100 ul/well. Incubation at 37° C., 5% CO2, overnight.
(§2) Adding the fresh growth-medium containing the varying concentrations of compounds, 50 ul/well.
(§3) Incubation at 37° C., 5% CO2, 6 days.
(§4) The cell viability detected by Cell Titer-Glo (Promega, G7573). Add 70 µL/well of CellTiter-Glo® Reagent in each well.
(§5) Allow the plates to incubate at room temperature for 10 minutes to stabilize luminescent signal.
(§6) Analyze with Microplate Reader.
(§7) Seeding cells A375 ([…] or Calu-6 (2E3/well) into 96-well plate (Greiner: 655090), 100 ul/well. Incubation at 37° C., […], overnight.
In general terms: ATP-based viability assays read luminescence as a measure of living cells.

The next assay deals with Calu-6. As to the kind of experiment: Compounds cellular killing in Calu-6. The conditions noted are these: Homo sapiens, Calu-6, 6 days, Cell Titer-Glo. Type of assay: cell-based, human. As for the experimental part: as §1, §2, §3, §4, §5, §6, §7

What is called EC50 is the concentration giving half of the maximal effect. A high value points to a less potent agent. The Emax is the size of the effect at its maximum, as opposed to the concentration needed. In the assay with A375 (A-375, […]), `CC[C@@]1(O)C(=O)OCc2c1cc1n(c2=O)Cc2c-1nc1cc(F)c(C)c3c1c2[C@@H](NC(=O)C[C@@H](O)C[N+](C)(C)C)CC3` [Example 2-15, (R)-4-(((1S,9S)-9-ethyl-5-fluoro-9-hydroxy-4-methyl-10,13-dioxo-2,3,9,10,13,15-hexahydro-1H,12H-benzo[de]pyrano[3′,4′:6,7]indolizino[1,2-b]quinolin-1-yl)amino)-2-hydroxy-N,N,N-trimethyl-4-oxobutan-1-aminium] returned an EC50 of 442 nM and an Emax of 73.5%. In addition, in the assay with Calu-6 (Calu-6, […]), the EC50 turned out to be 179 nM and the Emax came out at 90.1%.

As to `CC[C@@]1(O)C(=O)OCc2c1cc1n(c2=O)Cc2c-1nc1cc(F)c(C)c3c1c2[C@@H](NC(=O)CC(O)C[N+](C)(C)C)CC3` (stereo partly drawn) [Example 2-16, 4-(((1S,9S)-9-ethyl-5-fluoro-9-hydroxy-4-methyl-10,13-dioxo-2,3,9,10,13,15-hexahydro-1H,12H-benzo[de]pyrano[3′,4′:6,7]indolizino[1,2-b]quinolin-1-yl)amino)-2-hydroxy-N,N,N-trimethyl-4-oxobutan-1-aminium], the EC50 was 487 nM in the assay on A375 (A-375, […]) and 247 nM in the assay on Calu-6 (Calu-6, […]). Also, the Emax in the assay with A375 (A-375, […]) was determined as 77.1%; in the assay on Calu-6 (Calu-6, […]) it was 87.9%.

In the assay with A375 (A-375, […]), `CC[C@@]1(O)C(=O)OCc2c1cc1n(c2=O)Cc2c-1nc1cc(F)c(C)c3c1c2[C@@H](NC(=O)[C@@H]1C[C@@H](O)CN1C(C)=O)CC3` [Example 2-17, (2S,4R)-1-acetyl-N-((1S,9S)-9-ethyl-5-fluoro-9-hydroxy-4-methyl-10,13-dioxo-2,3,9,10,13,15-hexahydro-1H,12H-benzo[de]pyrano[3′,4′:6,7]indolizino[1,2-b]quinolin-1-yl)-4-hydroxypyrrolidine-2-carboxamide] had an EC50 of 123 nM and an Emax of 94.9%. Moreover, in the assay on Calu-6 (Calu-6, […]), it took 44.9 nM to reach a half-maximal effect (EC50) and the Emax is 94.6%.

With `CC[C@@]1(O)C(=O)OCc2c1cc1n(c2=O)Cc2c-1nc1cc(F)c(C)c3c1c2[C@@H](NC(=O)c1ccc(CO)o1)CC3` [Example 2-19, N-((1S,9S)-9-ethyl-5-fluoro-9-hydroxy-4-methyl-10,13-dioxo-2,3,9,10,13,15-hexahydro-1H,12H-benzo[de]pyrano[3′,4′:6,7]indolizino[1,2-b]quinolin-1-yl)-5-(hydroxymethyl)furan-2-carboxamide], the EC50 in the assay on A375 (A-375) was determined as 4.6 nM; with Calu-6, 1 nM. For the same compound, the Emax with A375 (A-375) worked out at 99.7%; with Calu-6 (Calu-6, […]) it was 99.3%.

In the assay on A375 (A-375, […]), `CC[C@@]1(O)C(=O)OCc2c1cc1n(c2=O)Cc2c-1nc1cc(F)c(C)c3c1c2[C@@H](NC(=O)C[C@H](O)CC#N)CC3` [Example 2-20, (R)-4-cyano-N-((1S,9S)-9-ethyl-5-fluoro-9-hydroxy-4-methyl-10,13-dioxo-2,3,9,10,13,15-hexahydro-1H,12H-benzo[de]pyrano[3′,4′:6,7]indolizino[1,2-b]quinolin-1-yl)-3-hydroxybutanamide] came in with an EC50 of 18.5 nM and an Emax of 98%. In the assay with Calu-6 (Calu-6, […]), this compound gave an EC50 of 5.6 nM and an Emax of 98.1%.

For the compound `CC[C@@]1(O)C(=O)OCc2c1cc1n(c2=O)Cc2c-1nc1cc(F)c(C)c3c1c2[C@@H](NC(=O)C(O)(C(F)(F)F)C(F)(F)F)CC3` [Example 2-21, N-((1S,9S)-9-ethyl-5-fluoro-9-hydroxy-4-methyl-10,13-dioxo-2,3,9,10,13,15-hexahydro-1H,12H-benzo[de]pyrano[3′,4′:6,7]indolizino[1,2-b]quinolin-1-yl)-3,3,3-trifluoro-2-hydroxy-2-(trifluoromethyl)propenamide], the 50% effective concentration (EC50) in the assay with A375 (A-375, […]) is 4.5 nM; in the assay on Calu-6 (Calu-6, […]), 0.4 nM. Also, the Emax turned out to be 98.3% in the assay on A375 (A-375, […]) and 96.7% with Calu-6 (Calu-6, […]).

On to `CC[C@@]1(O)C(=O)OCc2c1cc1n(c2=O)Cc2c-1nc1cc(F)c(C)c3c1c2[C@@H](n1cc(CO)nn1)CC3` [Example 2-22, (1S,9S)-9-ethyl-5-fluoro-9-hydroxy-1-(4-(hydroxymethyl)-1H-1,2,3-triazol-1-yl)-4-methyl-1,2,3,9,12,15-hexahydro-10H,13H-benzo[de]pyrano[3′,4′:6,7]indolizino[1,2-b]quinoline-10,13-dione], for which the EC50 in the assay with A375 (A-375, […]) came to 10.4 nM; with Calu-6 (Calu-6, […]), 5.6 nM. The Emax was determined as 97.7% with A375 (A-375, […]) and 98% in the assay with Calu-6 (Calu-6, […]).

As to `CC[C@@]1(O)C(=O)OCc2c1cc1n(c2=O)Cc2c-1nc1cc(F)c(C)c3c1c2[C@@H](n1cc(CCO)nn1)CC3` [Example 2-23, (1S,9S)-9-ethyl-5-fluoro-9-hydroxy-1-(4-(2-hydroxyethyl)-1H-1,2,3-triazol-1-yl)-4-methyl-1,2,3,9,12,15-hexahydro-10H,13H-benzo[de]pyrano[3′,4′:6,7]indolizino[1,2-b]quinoline-10,13-dione], the EC50 with A375 (A-375, […]) is 3.3 nM; with Calu-6 (Calu-6, […]), 1.9 nM. The Emax worked out at 99.9% in the assay with A375 (A-375, […]) and 98.9% in the assay on Calu-6 (Calu-6, […]).

For `CC[C@@]1(O)C(=O)OCc2c1cc1n(c2=O)Cc2c-1nc1cc(F)c(C)c3c1c2[C@@H](n1cc(CCCO)nn1)CC3` [Example 2-24, (1S,9S)-9-ethyl-5-fluoro-9-hydroxy-1-(4-(3-hydroxypropyl)-1H-1,2,3-triazol-1-yl)-4-methyl-1,2,3,9,12,15-hexahydro-10H,13H-benzo[de]pyrano[3′,4′:6,7]indolizino[1,2-b]quinoline-10,13-dione], in the assay with A375 (A-375, […]), the response was half-maximal at 7.1 nM (EC50) and the Emax worked out at 99.9%. For the same compound, in the assay with Calu-6 (Calu-6, […]), the midpoint of the response, the EC50, lay at 3.2 nM and the Emax came to 99.2%.

In the assay on A375 (A-375, […]), `CC[C@@]1(O)C(=O)OCc2c1cc1n(c2=O)Cc2c-1nc1cc(F)c(C)c3c1c2[C@@H](NC(=S)NCCO)CC3` [Example 2-25, 1-((1S,9S)-9-ethyl-5-fluoro-9-hydroxy-4-methyl-10,13-dioxo-2,3,9,10,13,15-hexahydro-1H,12H-benzo[de]pyrano[3′,4′:6,7]indolizino[1,2-b]quinolin-1-yl)-3-(2-hydroxyethyl)thiourea] yielded a concentration giving a half-maximal response (EC50) of 0.9 nM and an Emax of 99.9%. In the assay with Calu-6 (Calu-6, […]), this compound yielded an EC50 of 0.1 nM and an Emax of 98.2%.

For the compound `CC[C@@]1(O)C(=O)OCc2c1cc1n(c2=O)Cc2c-1nc1cc(F)c(C)c3c1c2[C@@H](NC(=O)NCCO)CC3` [Example 2-26, 1-((1S,9S)-9-ethyl-5-fluoro-9-hydroxy-4-methyl-10,13-dioxo-2,3,9,10,13,15-hexahydro-1H,12H-benzo[de]pyrano[3′,4′:6,7]indolizino[1,2-b]quinolin-1-yl)-3-(2-hydroxyethyl)urea], the EC50 turned out to be 18.6 nM in the assay on A375 (A-375) and 5.1 nM with Calu-6. Moreover, the Emax turned out to be 97.7% in the assay on A375 (A-375) and 98.4% with Calu-6 (Calu-6, […]).

In the case of `CC[C@@]1(O)C(=O)OCc2c1cc1n(c2=O)Cc2c-1nc1cc3c(c4c1c2[C@@H](NC(=O)CO)CC4)OC(F)(F)O3` [Example 2-27, N-((1S,10S)-10-ethyl-5,5-difluoro-10-hydroxy-11,14-dioxo-2,3,10,11,14,16-hexahydro-1H,13H-benzo[de][1,3]dioxolo[4,5-g]pyrano[3′,4′:6,7]indolizino[1,2-b]quinolin-1-yl)-2-hydroxyacetamide], in the assay on A375 (A-375, […]), the midpoint of the response, the EC50, lay at 10.7 nM and the Emax is 99.5%. In the assay on Calu-6 (Calu-6, […]), the response was half-maximal at 3.9 nM (EC50) and the Emax amounted to 99.5%.

In the assay on A375 (A-375, […]), `CC[C@@]1(O)C(=O)OCc2c1cc1n(c2=O)Cc2c-1nc1cc(OC)cc3c1c2[C@@H](NC(=O)CO)CC3` [Example 2-28, N-((1S,9S)-9-ethyl-9-hydroxy-5-methoxy-10,13-dioxo-2,3,9,10,13,15-hexahydro-1H,12H-benzo[de]pyrano[3′,4′:6,7]indolizino[1,2-b]quinolin-1-yl)-2-hydroxyacetamide] had an EC50 of 13.8 nM and an Emax of 98.8%. In the assay with Calu-6 (Calu-6, […]), the EC50 stood at 7.4 nM and the Emax is 98.7%.

In the assay with A375 (A-375, […]), `CC[C@@]1(O)C(=O)OCc2c1cc1n(c2=O)Cc2c-1nc1cc(F)c(F)c3c1c2[C@@H](NC(=O)CO)CC3` [Example 2-30, N-((1S,9S)-9-ethyl-4,5-difluoro-9-hydroxy-10,13-dioxo-2,3,9,10,13,15-hexahydro-1H,12H-benzo[de]pyrano[3′,4′:6,7]indolizino[1,2-b]quinolin-1-yl)-2-hydroxyacetamide] displayed an EC50 of 1.2 nM and an Emax of 98.9%. Further, in the assay on Calu-6 (Calu-6, […]), the EC50 is 0.7 nM and the Emax amounted to 98.9%.

Take `CC[C@@]1(O)C(=O)OCc2c1cc1n(c2=O)Cc2c-1nc1cc(F)cc3c1c2[C@@H](NC(=O)CO)CC3` [Example 2-31, N-((1S,9S)-9-ethyl-5-fluoro-9-hydroxy-10,13-dioxo-2,3,9,10,13,15-hexahydro-1H,12H-benzo[de]pyrano[3′,4′:6,7]indolizino[1,2-b]quinolin-1-yl)-2-hydroxyacetamide]: in the assay on A375 (A-375, […]), a half-maximal effect (EC50) was put at 6.2 nM and the Emax turned out to be 98.9%. Further, in the assay on Calu-6 (Calu-6, […]), the EC50 was 4.2 nM and the Emax was 98.9%.

`CC[C@@]1(O)C(=O)OCc2c1cc1n(c2=O)Cc2c-1nc1cc(O)cc3c1c2[C@@H](NC(=O)CO)CC3` [Example 2-32, N-((1S,9S)-9-ethyl-5,9-dihydroxy-10,13-dioxo-2,3,9,10,13,15-hexahydro-1H,12H-benzo[de]pyrano[3′,4′:6,7]indolizino[1,2-b]quinolin-1-yl)-2-hydroxyacetamide]: in the assay with A375 (A-375, […]), the EC50 is 368 nM and the Emax was determined as 93.7%. Also, in the assay with Calu-6 (Calu-6, […]), a half-maximal effect (EC50) was put at 81.5 nM and the Emax was 93.7%.

These data come from patent publication US20250295798A1, “LIGAND-DRUG CONJUGATE OF EXATECAN ANALOGUE, AND MEDICAL USE THEREOF” (BeiGene Switzerland GmbH, priority 2022, published 2025).
